For data set [1], the system named is Chlorella minutissima. Nature of the data set: Encapsulation of curcumin in algae cells using pressure assisted encapsulation. It counts as physicochemical. The note with it: vacuum sealing, 5% ethanol, 100 mg cells. The source says: (§1) Briefly, 1 gm of yeast or algal cells pellet is suspended in the 35% ethanolic solution of the selected bioactive compound. […] We have determined the % ethanol to achieve sufficient encapsulation of the selected encapsulated bioactive compounds using both the vacuum and high pressure assisted encapsulation process. Yeast or algal cell samples suspended in the ethanolic solution with the bioactive compound are sealed in boilable vacuum bags (Prime Source) at 99% vacuum (Ultravac 250, Koch Equipment LLC). […] The sealed samples are covered with aluminum foil to prevent any photo-degradation of the bioactives and incubated at room temperature (25° C.) for 10 minutes. Samples are emptied into 50 mL centrifuge tubes, centrifuged at 2200 rpm for 10 minutes to pellet the cells and the pelleted cells are washed twice with ethanolic solution (35%) and then five times with excess water to remove unencapsulated bioactives. Cells are sonicated to disrupt the cellular structure. […] The concentration of bioactive compound dissolved in the organic phase is measured using UV-vis spectrophotometer. […] The encapsulation efficiency is determined as follows: [formula] where CE is the mass of extracted bioactive from the cells after encapsulation and CT is the amount of bioactive initially added to the cells. […]

Data set [2] has as its system Chlorella sorokiniana. The description is as above. It counts as physicochemical. The note with it: vacuum sealing, 5% ethanol, 50 mg cells.
From the text: as §1

Consider 1 molecule from patent US10864168B2, “Bioactive delivery vehicles” (The Regents of the University of California, priority 2014, dated 2020).

Consider `COc1cc(/C=C/C(=O)CC(=O)/C=C/c2ccc(O)c(OC)c2)ccc1O` [Curcumin, curcumin], for which the “Mass of Encapsulated Bioactive in Algae” value was determined as 0.184 mg/g in data set [1] and 0.355 mg/g in data set [2].
